Patent publication US12201608B2, “Methods for treating Parkinson's disease by administering resiniferatoxin” (Sorrento Therapeutics, Inc., priority 2018, dated 2025)
“Also recorded” adds a separate entry of the source.

How the values were obtained:
[1] = system: AAV-A53T mouse model of Parkinson's Disease-like (PD) pathology; assay: Fine motor gait analysis accounting for left-right asymmetry (D7 data reevaluated); assay type: in vivo, C57Bl/6J male mice; details: for maximum left-right difference of hip angle: vs AAV-A53T Vehicle
Method: D7 fine motor gait analysis data from the study described above was reevaluated to determine how left-right asymmetry is manifested on kinematic parameters instead of assessing changes which occur bilaterally and that are captured in the “normal” overall gait score.
Typically, both the left and right sides of an animal are assessed for test parameters and the overall score and discriminant vector is based on the average of both the left and right-side values for a particular parameter. For example, the maximum hip angle is determined by the average of the left and right-side angle and it is similar in both AAV-Null Vehicle and AAV-A53T Vehicle groups. However, as shown in FIGS. 8A-8C when the left and right side measurements of the maximum hip angle were analyzed separately, the hip angle max of AAV-A53T Vehicle treated mice is smaller on the left side (FIG. 8A) than on the right side (FIG. 8B) when compared to AAV-Null mice.
Fine motor gait analysis was performed by creating a discriminant vector using the transformed data set, where left-right difference is used instead of the average of left and right.

[2] = Pilot tolerability study of intrathecal RTX infusion; assay type: in vivo, C57Bl/6J mice
Method: The purpose of this study was to investigate the effects of single intrathecal administration of RTX on the AAV-A53T mouse model of PD-like pathology. Prior to this study start, a pilot tolerability study was conducted in which 16 male and 16 female C57Bl/6J mice were infused with RTX at two doses (either 0.04 μg or 0.125 μg) and followed up for 24 hours thereafter to observe any possible adverse effects of the treatment.
Of the 32 total mice used in the pilot study arm, in total 4 mice died during the 24 hour monitoring period after intrathecal infusion of RTX. Two females treated with 0.125 μg dose were found dead in cage within 4-24 hours after infusion due to unknown reason.

[3] = Body weight monitoring in AAV-A53T / AAV-Null infused mice; assay type: in vivo, C57Bl/6J male mice; details: single intrathecal 0.04 μg or 0.125 μg, 7 or 14 days after AAV-A53T or AAV-Null infusion, 8 week study, two-way ANOVA
Method: For this study, a total of 110 male C57Bl/6J mice two months of age were infused with either AAV-A53T (90 mice) or AAV-Null (20 mice) into substantia nigra unilaterally to induce PD-like pathology or to serve as sham controls, respectively. Mice infused with AAV-Null (empty) vector (“sham-infused” mice) were used in order to control for the effect of the viral infusion. After 7 or 14 days of AAV-A53T mediated disease model induction, the mice were treated with RTX (0.04 μg or 0.125 μg) (5 μL volume, prepared from a 25 μg/ml RTX solution containing Polysorbate 80 at 0.03% w/v, dextrose at 0.05% w/v, Phosphate Buffer at 30 mM, and NaCl 0.54% w/v, pH 7.2, and diluted in saline as needed) by single intrathecal infusion at lumbar spinal cord area. One AAV-Null and AAV-A53T infused group per each time point were treated with vehicle instead of RTX.
The mice were then treated with RTX or vehicle by intrathecal infusion 7 or 14 days after AAV infusion. […]
Body weight of the animals was monitored two times per week. […] Dopamine and its metabolites were analyzed from ipsilateral and contralateral striata by high performance liquid chromatography (HPLC).
Body weight of the mice was measured twice-per week (on Mondays and Fridays) for the whole study duration.

[4] = both RTX groups, vs AAV-A53T Vehicle D7

SMILES: C=C(C)[C@]12C[C@@H](C)[C@@]34O[C@](Cc5ccccc5)(O[C@@H]1[C@@H]3C=C(COC(=O)Cc1ccc(O)c(OC)c1)C[C@]1(O)C(=O)C(C)=C[C@@H]41)O2 [RTX, Resiniferatoxin]
- maximum left-right difference of hip angle ([1]; AAV-A53T and 0.05 μg RTX (n=14)): reduction in the maximum difference
- maximum left-right difference of hip angle ([1]; AAV-A53T and 0.124 μg RTX (n=14)): reduction in the maximum difference
- hindlimb peak swing speed, left-right difference [1, 4]: reduced
- hindlimb swing speed, left-right difference [1, 4]: reduced
- left-right gait difference Discriminant Vector Score ([1]; both RTX groups, vs AAV-A53T vehicle, p<0.05 unpaired t-test): significantly lower
- diagonal interlimb coordination, left-right difference ([1]; low and high RTX dose groups): less of a a diagonal interlimb coordination difference
- adverse effects in the rest of the mice ([2]; 0.04 μg or 0.125 μg, 24 hour follow-up): No significant adverse effects
- found dead in cage within 4-24 hours after infusion ([2]; 0.125 μg dose, unknown reason): Two females
- died immediately after infusion ([2]; 0.125 μg dosing group): one female and one male mouse
- mice died during the 24 hour monitoring period after intrathecal infusion ([2]; 32 mice total (16 male, 16 female), RTX 0.04 μg or 0.125 μg intrathecal): 4 mice
- body weight [3]: steady weight gain was observed similarly in vehicle and RTX treated groups; also recorded: No significant differences between the groups
- body weight ([3]; listed as resiniferatoxin): No significant differences between the groups
